Results on 20 compounds are retold here after US20120258960A1, “NOVEL MULTIFUNCTIONAL PEPTIDASE INHIBITORS, ESPECIALLY FOR MEDICAL USE” (IMTM GMBH, priority 2009, published 2012).

For experiment [1], the system named is human peripheral blood mononuclear cells. Kind of experiment: Inhibition of proliferation of PHA-stimulated mononuclear cells (BrdU incorporation). Format: cell-based. Conditions: PBMC, 1 μg/ml Phytohemagglutinine, 48 hours, test compounds 0.1-250 μM, read-out: MNC IC50. On the procedure: (§1) Peripheral blood mononuclear cells (PBMC) from healthy human volunteers were freshly isolated by density gradient centrifugation. T lymphocytes (T cells, Tc) were isolated from PBMC fractions via nylon wool adherence. Cells were cultured in standard cell culture media and stimulated by addition of 1 μg/ml Phytohemagglutinine for 48 hours in 96 well flat-bottom microtitre plates. Test compounds were added at concentration ranges from 0.1-250 μM over the total assay period.
DNA synthesis of proliferating PBMC was assessed by incorporation of nucleotide analogue bromdesoxyuridine (BrdU) and subsequent detection of optical density (OD) at 450 nm.
(§2) Data output was based on raw data and calculation of relative proliferation response in relation to PHA-activated T cells in the absence of test compound (100% control).
(§3) The […] value of proliferation suppression was assessed by graphical evaluation.

Experiment [2] has as its system T lymphocytes. Kind of experiment: Inhibition of proliferation of PHA-stimulated T lymphocytes (tritium thymidine incorporation). Format: cell-based. Conditions: Homo sapiens, T-lymphocyte, 1 μg/ml Phytohemagglutinine, 48 hours, test compounds 0.1-250 μM, read-out: T cells IC50. On the procedure:
as §1
DNA synthesis of proliferating T cells was determined by incorporation of radio labelled tritium thymidine and subsequent radio detection.
as §2, §3

Turning to `CCCCCCCC(=O)OC(C(=O)NCC(C)(C)CNC(=O)CC(N)Cc1cc(F)ccc1F)C(N)Cc1ccccc1` (stereo not shown) [drawing 247], the IC50 came to 5.8 µM in experiment [1] and 7.4 µM in experiment [2].
Consider `NC(CC(=O)NCCCCNC(=O)C(O)C(N)Cc1ccccc1)C(=O)N1CCSC1` (stereo not shown) [drawing 248], for which the IC50 in experiment [1] came out at 28.3 µM; in experiment [2], 35.2 µM.
In the same order, the values of `CCCCCCCCCCCCCCCC(=O)OC(C(=O)NCC(C)(C)CNC(=O)CC(N)Cc1cc(F)ccc1F)C(N)Cc1ccccc1` (stereo not shown) [drawing 249] are 35.8 µM and 34.4 µM.
On to `CCCCCCCC(=O)OC(C(=O)N(C)CCCNC(=O)CC(N)Cc1cc(F)ccc1F)C(N)Cc1ccccc1` (stereo not shown) [drawing 250], for which the IC50 in experiment [1] worked out at 11.1 µM; in experiment [2], 9.5 µM.
In the same order, the values of `NC(CC(=O)NCCCCNC(=O)C(O)C(N)Cc1ccc(C(=O)O)cc1)Cc1cc(F)ccc1F` (stereo not shown) [drawing 251] are 130 µM and 112 µM.
As to `CCCCCCCCCCCCCC(=O)OC(C(=O)NCC(C)(C)CNC(=O)CC(N)Cc1cc(F)ccc1F)C(N)Cc1ccccc1` (stereo not shown) [drawing 252], the IC50 in experiment [1] is 1.9 µM; in experiment [2] it was 2 µM.
For `CCCCCCCCCCCC(=O)OC(C(=O)NCC(C)(C)CNC(=O)CC(N)Cc1cc(F)ccc1F)C(N)Cc1ccccc1` (stereo not shown) [drawing 253], the IC50 in experiment [1] amounted to 1.7 µM; in experiment [2], 2 µM.
For `CCCCCCCCCC(=O)OC(C(=O)NCC(C)(C)CNC(=O)CC(N)Cc1cc(F)ccc1F)C(N)Cc1ccccc1` (stereo not shown) [drawing 254], the concentration for half-maximal inhibition (IC50) worked out at 2.5 µM in experiment [1] and 3.1 µM in experiment [2].
The like results for `CC(C)(CNC(=O)CC(N)Cc1cc(F)ccc1F)CNC(=O)C(OC(=O)CCCc1ccccc1)C(N)Cc1ccccc1` (stereo not shown) [drawing 255] were, in that order, 2.5 µM and 3 µM.
The like results for `CCCCCCCC(=O)OC(C(=O)NCCCCNC(=O)CC(N)Cc1cc(F)ccc1F)C(N)Cc1ccccc1` (stereo not shown) [drawing 256] were, in that order, 10.6 µM and 19 µM.
In the same order, the values of `CCCCCCCCCCCCCCCC(=O)OC(C(=O)NCCCCNC(=O)CC(N)Cc1cc(F)ccc1F)C(N)Cc1ccccc1` (stereo not shown) [drawing 259] are 2.1 µM and 4.1 µM.
As for `CCCC(=O)OC(C(=O)NCC(C)(C)CNC(=O)CC(N)Cc1cc(F)ccc1F)C(N)Cc1ccccc1` (stereo not shown) [drawing 260], the IC50 in experiment [1] stood at 95.1 µM; in experiment [2], 55.3 µM.
As for `CCCCCC(=O)OC(C(=O)NCC(C)(C)CNC(=O)CC(N)Cc1cc(F)ccc1F)C(N)Cc1ccccc1` (stereo not shown) [drawing 261], the IC50 in experiment [1] stood at 14.3 µM; in experiment [2] it was 11.3 µM.
The like results for `NC(CC(=O)NCC1(CNC(=O)C(O)C(N)Cc2ccccc2)CCC1)Cc1cc(F)ccc1F` (stereo not shown) [drawing 263] were, in that order, 29.9 µM and 19.2 µM.
The like results for `CC(C(=O)NCC(C)(C)CNC(=O)C(O)C(N)Cc1ccccc1)C(N)Cc1cc(F)ccc1F` (stereo not shown) [drawing 266] were, in that order, 41.6 µM and 38.9 µM.
The like results for `NC(CC(=O)NCCCCNC(=O)C(O)C(N)Cc1ccc(Br)cc1)Cc1cc(F)ccc1F` (stereo not shown) [drawing 267] were, in that order, 200 µM and 58.1 µM.
Take `CCCCCCCCCCCCCCCC(=O)NC(CC(=O)NCC(C)(C)CNC(=O)C(O)C(Cc1ccccc1)NC(=O)CCCCCCCCCCCCCCC)Cc1cc(F)ccc1F` (stereo not shown) [drawing 268]: the IC50 in experiment [1] was 200 µM; in experiment [2] it was 97.5 µM.
The like results for `NC(CC(=O)NC1CCCC(NC(=O)C(O)C(N)Cc2ccccc2)C1)Cc1cc(F)ccc1F` (stereo not shown) [drawing 269] were, in that order, 200 µM and 113 µM.
Take `NC(CC(=O)Nc1cccc(NC(=O)C(O)C(N)Cc2ccccc2)c1)Cc1cc(F)ccc1F` (stereo not shown) [drawing 270]: the IC50 in experiment [1] came out at 9.1 µM; in experiment [2], 9.4 µM.
Take `NC(CC(=O)N1CCCN(C(=O)C(O)C(N)Cc2ccccc2)CC1)Cc1cc(F)ccc1F` (stereo not shown) [drawing 271]: the IC50 in experiment [1] was 200 µM; in experiment [2] it was 83.5 µM.
